Test system: c-Myc
Experiment: c-Myc immunofluorescence assay
Assay type: cell-based, human
Settings: A549 cells, 24 hours, anti-c-Myc immunofluorescence
Method in brief: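 A549 NSCLC cells grown 48 h, then treated 24 h with increasing compound concentrations; fixed in 4% paraformaldehyde, stained with anti-c-Myc antibody plus fluorescent secondary and DAPI. Per-cell c-Myc fluorescence quantified by high-content imaging at 20×; dose-response fitted by logistic regression to give EC50.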

Structure (SMILES) | Myc Efficacy (−LogEC50)
COc1ccc(-c2noc(N3CCC(C(=O)NCC4CCN(Cc5cccc(O)c5)C4)CC3)n2)cc1 (centres unmarked) [Compound 390, N-((1-(3-hydroxybenzyl)pyrrolidin-3-yl)methyl)-1-(3-(4-methoxyphenyl)-1,2,4-oxadiazol-5-yl)piperidine-4-carboxamide] | ++ (++ ≥5 and <6)
COc1ccc(-c2noc(N3CCC(C(=O)NCC4CCN(CC5CCCNCC5)C4)CC3)n2)cc1 (centres unmarked) [Compound 391, N-((1-(azepan-4-ylmethyl)pyrrolidin-3-yl)methyl)-1-(3-(4-methoxyphenyl)-1,2,4-oxadiazol-5-yl)piperidine-4-carboxamide] | + (+ >3 and <5)
COc1ccc(-c2noc(N3CCC(C(=O)NCC4CCN(C[C@@H]5CCCN5)C4)CC3)n2)cc1 (stereo partly drawn) [Compound 392, 1-(3-(4-methoxyphenyl)-1,2,4-oxadiazol-5-yl)-N-((1-(((S)-pyrrolidin-2-yl)methyl)pyrrolidin-3-yl)methyl)piperidine-4-carboxamide] | + (+ >3 and <5)
COc1ccc(-c2noc(N3CCC(C(=O)NCC4CCN(CC5CC(F)(F)C5)C4)CC3)n2)cc1 (centres unmarked) [Compound 393, N-((1-((3,3-difluorocyclobutyl)methyl)pyrrolidin-3-yl)methyl)-1-(3-(4-methoxyphenyl)-1,2,4-oxadiazol-5-yl)piperidine-4-carboxamide] | + (+ >3 and <5)
COc1ccc(-c2noc(N3CCC(C(=O)NCC4CCN(CC5CC(N)C5)C4)CC3)n2)cc1 (centres unmarked) [Compound 394, N-((1-(((1s,3s)-3-aminocyclobutyl)methyl)pyrrolidin-3-yl)methyl)-1-(3-(4-methoxyphenyl)-1,2,4-oxadiazol-5-yl)piperidine-4-carboxamide] | + (+ >3 and <5)
COc1ccc(-c2noc(N3CCC(C(=O)NCC4CCN(CC5CCO5)C4)CC3)n2)cc1 (centres unmarked) [Compound 395, 1-(3-(4-methoxyphenyl)-1,2,4-oxadiazol-5-yl)-N-((1-(oxetan-2-ylmethyl)pyrrolidin-3-yl)methyl)piperidine-4-carboxamide] | + (+ >3 and <5)
COc1ccc(-c2noc(N3CCC(C(=O)NCC4CCN(C5CCCOC5)C4)CC3)n2)cc1 (centres unmarked) [Compound 396, 1-(3-(4-methoxyphenyl)-1,2,4-oxadiazol-5-yl)-N-((1-(tetrahydro-2H-pyran-3-yl)pyrrolidin-3-yl)methyl)piperidine-4-carboxamide] | + (+ >3 and <5)
COc1ccc(-c2noc(N3CCC(C(=O)NCC4CCN(C(C)CO)C4)CC3)n2)cc1 (centres unmarked) [Compound 397, N-((1-(1-hydroxypropan-2-yl)pyrrolidin-3-yl)methyl)-1-(3-(4-methoxyphenyl)-1,2,4-oxadiazol-5-yl)piperidine-4-carboxamide] | − (− ≤3)
COc1ccc(-c2noc(N3CCC(C(=O)NCC4CCN(C5CCOCC5)C4)CC3)n2)cc1 (centres unmarked) [Compound 398, 1-(3-(4-methoxyphenyl)-1,2,4-oxadiazol-5-yl)-N-((1-(tetrahydro-2H-pyran-4-yl)pyrrolidin-3-yl)methyl)piperidine-4-carboxamide] | + (+ >3 and <5)
COc1ccc(-c2noc(N3CCC(C(=O)NCC4CCN(C5CC6(COC6)C5)C4)CC3)n2)cc1 (centres unmarked) [Compound 399, N-((1-(2-oxaspiro[3.3]heptan-6-yl)pyrrolidin-3-yl)methyl)-1-(3-(4-methoxyphenyl)-1,2,4-oxadiazol-5-yl)piperidine-4-carboxamide] | + (+ >3 and <5)
COc1ccc(-c2noc(N3CCC(C(=O)NCC4CCN(C5CCCOCC5)C4)CC3)n2)cc1 (centres unmarked) [Compound 400, 1-(3-(4-methoxyphenyl)-1,2,4-oxadiazol-5-yl)-N-((1-(oxepan-4-yl)pyrrolidin-3-yl)methyl)piperidine-4-carboxamide] | + (+ >3 and <5)
COc1ccc(-c2noc(N3CCC(C(=O)NCC4CCN(C5COC5)C4)CC3)n2)cc1 (centres unmarked) [Compound 401, 1-(3-(4-methoxyphenyl)-1,2,4-oxadiazol-5-yl)-N-((1-(oxetan-3-yl)pyrrolidin-3-yl)methyl)piperidine-4-carboxamide] | + (+ >3 and <5)
COc1ccc(-c2noc(N3CCC(C(=O)NCC4CCN(C5CCOC(C)C5)C4)CC3)n2)cc1 (centres unmarked) [Compound 402, 1-(3-(4-methoxyphenyl)-1,2,4-oxadiazol-5-yl)-N-((1-(2-methyltetrahydro-2H-pyran-4-yl)pyrrolidin-3-yl)methyl)piperidine-4-carboxamide] | + (+ >3 and <5)
COc1ccc(-c2noc(N3CCC(C(=O)Nc4ccc5c(c4)CCN5C)CC3)n2)cc1 [Compound 403, 1-(3-(4-methoxyphenyl)-1,2,4-oxadiazol-5-yl)-N-(1-methylindolin-5-yl)piperidine-4-carboxamide] | + (+ >3 and <5)
COc1ccc(-c2noc(N3CCC(C(=O)NCC4CCN(Cc5scnc5C)C4)CC3)n2)cc1 (centres unmarked) [Compound 404, 1-(3-(4-methoxyphenyl)-1,2,4-oxadiazol-5-yl)-N-((1-((4-methylthiazol-5-yl)methyl)pyrrolidin-3-yl)methyl)piperidine-4-carboxamide] | ++ (++ ≥5 and <6)
COc1ccc(-c2noc(N3CCC(C(=O)NCC4CCN(CC5CCCO5)C4)CC3)n2)cc1 (centres unmarked) [Compound 405, 1-(3-(4-methoxyphenyl)-1,2,4-oxadiazol-5-yl)-N-((1-((tetrahydrofuran-2-yl)methyl)pyrrolidin-3-yl)methyl)piperidine-4-carboxamide] | + (+ >3 and <5)
COc1ccc(-c2noc(N3CCC(C(=O)NCC4CCN(Cc5occc5C)C4)CC3)n2)cc1 (centres unmarked) [Compound 406, 1-(3-(4-methoxyphenyl)-1,2,4-oxadiazol-5-yl)-N-((1-((3-methylfuran-2-yl)methyl)pyrrolidin-3-yl)methyl)piperidine-4-carboxamide] | + (+ >3 and <5)
COc1ccc(-c2noc(N3CCC(C(=O)NCC4CCN(Cc5ncc(C)s5)C4)CC3)n2)cc1 (centres unmarked) [Compound 407, 1-(3-(4-methoxyphenyl)-1,2,4-oxadiazol-5-yl)-N-((1-((5-methylthiazol-2-yl)methyl)pyrrolidin-3-yl)methyl)piperidine-4-carboxamide] | ++ (++ ≥5 and <6)
COc1ccc(-c2noc(N3CCC(C(=O)NCC4CCN(CC5COC5)C4)CC3)n2)cc1 (centres unmarked) [Compound 408, 1-(3-(4-methoxyphenyl)-1,2,4-oxadiazol-5-yl)-N-((1-(oxetan-3-ylmethyl)pyrrolidin-3-yl)methyl)piperidine-4-carboxamide] | + (+ >3 and <5)
COc1ccc(-c2noc(N3CCC(C(=O)NCC4CCN(CC5=CCCCC5)C4)CC3)n2)cc1 (centres unmarked) [Compound 409, N-((1-(cyclohex-1-en-1-ylmethyl)pyrrolidin-3-yl)methyl)-1-(3-(4-methoxyphenyl)-1,2,4-oxadiazol-5-yl)piperidine-4-carboxamide] | ++ (++ ≥5 and <6)
COc1ccc(-c2noc(N3CCC(C(=O)NCC4CCN(CC=C(C)C)C4)CC3)n2)cc1 (centres unmarked) [Compound 410, 1-(3-(4-methoxyphenyl)-1,2,4-oxadiazol-5-yl)-N-((1-(3-methylbut-2-en-1-yl)pyrrolidin-3-yl)methyl)piperidine-4-carboxamide] | ++ (++ ≥5 and <6)
COc1ccc(-c2noc(N3CCC(C(=O)NCC4CCN(CCC(C)C)C4)CC3)n2)cc1 (centres unmarked) [Compound 411, N-((1-isopentylpyrrolidin-3-yl)methyl)-1-(3-(4-methoxyphenyl)-1,2,4-oxadiazol-5-yl)piperidine-4-carboxamide] | ++ (++ ≥5 and <6)
COc1ccc(-c2noc(N3CCC(C(=O)NCC4CCN(C[C@@H]5CCCNC5)C4)CC3)n2)cc1 (stereo partly drawn) [Compound 412, 1-(3-(4-methoxyphenyl)-1,2,4-oxadiazol-5-yl)-N-((1-(((R)-piperidin-3-yl)methyl)pyrrolidin-3-yl)methyl)piperidine-4-carboxamide] | − (− ≤3)
COc1ccc(-c2noc(N3CCC(C(=O)NCC4CCN(C[C@H]5CCN5)C4)CC3)n2)cc1 (stereo partly drawn) [Compound 413, N-((1-(((R)-azetidin-2-yl)methyl)pyrrolidin-3-yl)methyl)-1-(3-(4-methoxyphenyl)-1,2,4-oxadiazol-5-yl)piperidine-4-carboxamide] | − (− ≤3)
COc1ccc(-c2noc(N3CCC(C(=O)NCC4CCN(C[C@H]5CCCCN5C)C4)CC3)n2)cc1 (stereo partly drawn) [Compound 414, 1-(3-(4-methoxyphenyl)-1,2,4-oxadiazol-5-yl)-N-((1-(((R)-1-methylpiperidin-2-yl)methyl)pyrrolidin-3-yl)methyl)piperidine-4-carboxamide] | + (+ >3 and <5)
COc1ccc(-c2noc(N3CCC(C(=O)NCC4CCN(C[C@H]5CCCCN5)C4)CC3)n2)cc1 (stereo partly drawn) [Compound 415, 1-(3-(4-methoxyphenyl)-1,2,4-oxadiazol-5-yl)-N-((1-(((R)-piperidin-2-yl)methyl)pyrrolidin-3-yl)methyl)piperidine-4-carboxamide] | + (+ >3 and <5)
COc1ccc(-c2noc(N3CCC(C(=O)NCC4CCN(C(C)C5CCOCC5)C4)CC3)n2)cc1 (centres unmarked) [Compound 416, 1-(3-(4-methoxyphenyl)-1,2,4-oxadiazol-5-yl)-N-((1-(1-(tetrahydro-2H-pyran-4-yl)ethyl)pyrrolidin-3-yl)methyl)piperidine-4-carboxamide] | + (+ >3 and <5)
COc1ccc(-c2noc(N3CCN(C(=O)NCc4cc5ccccc5[nH]4)CC3)n2)cc1 [Compound 417, N-((1H-indol-2-yl)methyl)-4-(3-(4-methoxyphenyl)-1,2,4-oxadiazol-5-yl)piperazine-1-carboxamide] | ++ (++ ≥5 and <6)
COc1ccc(-c2noc(N3CCC(C(=O)NCc4cc5cccnc5[nH]4)CC3)n2)cc1 [Compound 418, N-((1H-pyrrolo[2,3-b]pyridin-2-yl)methyl)-1-(3-(4-methoxyphenyl)-1,2,4-oxadiazol-5-yl)piperidine-4-carboxamide] | + (+ >3 and <5)
